Results taken from patent publication EP4417602A1, “SUBSTITUTED PYRAZOLE CARBOXAMIDES, SALTS THEREOF AND THEIR USE AS HERBICIDALLY ACTIVE SUBSTANCES” (Bayer AG, priority 2023, dated 2024).

Experiments:
[1] = test system: ALOMY; test: A. Herbicidal pre-emergence action on harmful plants (Tables A); format: in vivo, Alopecurus myosuroides
Method in brief: (§1)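 Greenhouse pre-emergence test: compound applied to the soil surface at 1280 g/ha or below, and herbicidal effect rated visually at ca. 3 weeks on a 0–100% scale against untreated plants.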

[2] = test system: MATIN; test: as above; format: in vivo, Matricaria inodora; conditions: application rate 1280 g/ha; visual grading after ca. 3 weeks vs untreated controls; 100% = plants have died off, 0% = as control plants
Method in brief: as §1

[3] = test system: BRSNW; test: F. Post-emergence effects on crop plants (Tables F); format: in vivo, Brassica napus; conditions: application rate 320 g/ha, crop plant
Method in brief: (§2)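 Plants were grown in sandy loam in a greenhouse and sprayed post-emergence at the single-leaf stage, 2–3 weeks after sowing. Visual damage was scored after ca. 3 weeks against untreated controls (0% = as control, 100% = dead).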

[4] = test system: DIGSA; test: A. Herbicidal pre-emergence action on harmful plants (Tables A); format: in vivo, Digitaria sanguinalis
Method in brief: as §1

[5] = test system: GLXMA; test: F. Post-emergence effects on crop plants (Tables F); format: in vivo, Glycine max; conditions: crop plant
Method in brief: as §2

[6] = test system: ZEAMX; test: D. Pre-emergence effects on crop plants (Tables D); format: in vivo, Zea mays; conditions: crop plant
Method in brief: (§3)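 Pre-emergence soil-surface treatment at 320 g/ha or lower, using wettable-powder or emulsifiable-concentrate formulations in water plus 0.5% additive, over freshly sown seeds in covered sandy loam. Damage was rated visually as percent versus untreated pots (100% = dead plants) after about 3 weeks of greenhouse growth.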

[7] = test system: ZEAMX; test: F. Post-emergence effects on crop plants (Tables F); format: in vivo, Zea mays; conditions: crop plant
Method in brief: as §2

[8] = test system: ALOMY; test: C. Herbicidal pre-emergence action, weed and crop plants (Tables C); format: in vivo, Alopecurus myosuroides; conditions: application rate 320 g/ha; Table C2a
From the text: (§4) Seeds of mono- and dicotyledonous weed plants and crop plants were sown, in plastic or organic planting pots, in sandy loam and covered with soil. The compounds according to the invention, formulated in the form of wettable powders (WP) or as emulsifiable concentrates (EC), were applied to the surface of the covering soil as aqueous suspension or emulsion, with the addition of 0.5% of an additive, at an application rate of 6001 of water/ha (converted). Following treatment, the pots were placed in a greenhouse and kept under optimum growth conditions for the test plants. The visual grading of the damage to the test plants was carried out after ca. 3 weeks in comparison to untreated controls (herbicidal effect in percent (%): 100% effect = plants have died off, 0% effect = as control plants). Tables C1 to C12 below show the effects of selected compounds of the general formula (I) according to table 1 on various harmful plants and an application rate corresponding to 320 g/ha or below obtained by the experimental procedure mentioned above. Table C1: pre-emergence activity at 320g/ha against KCHSC in %

[9] = test system: ECHCG; test: A. Herbicidal pre-emergence action on harmful plants (Tables A); format: in vivo, Echinochloa crus-galli; conditions: visual grading after ca. 3 weeks vs untreated controls, 100% = plants have died off, 0% = as control plants
Method in brief: as §1

[10] = test system: POAAN; test: as above; format: in vivo, Poa annua
Method in brief: as §1

[11] = test system: VIOTR; test: C. Herbicidal pre-emergence action, weed and crop plants (Tables C); format: in vivo, Viola tricolor; conditions: application rate 320 g/ha; Table C12a
Method in brief: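 Seeds were sown in sandy loam and covered with soil. WP or EC formulations were sprayed onto the soil surface as aqueous suspension or emulsion with 0.5% additive, at rates of 320 g/ha or below. Plants were kept in a greenhouse, and damage was scored visually after about 3 weeks as % effect versus untreated controls (100% = dead, 0% = like control).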

[12] = test system: GLXMA; test: D. Pre-emergence effects on crop plants (Tables D); format: in vivo, Glycine max; conditions: crop plant
Method in brief: as §3

[13] = test system: SETVI; test: A. Herbicidal pre-emergence action on harmful plants (Tables A); format: in vivo, Setaria viridis; conditions: visual grading after ca. 3 weeks vs untreated controls, 100% = plants have died off, 0% = as control plants
Method in brief: as §1

[14] = test system: ECHCG; test: C. Herbicidal pre-emergence action, weed and crop plants (Tables C); format: in vivo, Echinochloa crus-galli; conditions: application rate 320 g/ha; Table C6a
From the text: as §4

[15] = application rate 320 g/ha, Table A9b
[16] = application rate 1280 g/ha, Table A9a
[17] = application rate 320 g/ha, Table A12b
[18] = application rate 1280 g/ha, Table A12a
[19] = application rate 80 g/ha, Table D1b
[20] = application rate 80 g/ha, Table A7c
[21] = application rate 320 g/ha, Table A7b
[22] = application rate 1280 g/ha, visual grading after ca. 3 weeks vs untreated controls, 100% = plants have died off, 0% = as control plants
[23] = application rate 80 g/ha, Table D4b

Cn1cc(C(=O)N2CCCC2Cc2ccccc2F)c(COc2ccccc2)n1 (racemic) [Example I-006]
0%: post-emergence activity against GLXMA in % ([5]; application rate 80 g/ha) | pre-emergence activity against ZEAMX [6, 19]
100%: pre-emergence activity against ALOMY [1, 16] | pre-emergence activity against DIGSA [4, 18] | pre-emergence activity against POAAN [10, 20] | pre-emergence activity against POAAN [10, 21] | pre-emergence activity against POAAN [10, 22]
90%: pre-emergence activity against ALOMY [1, 15] | pre-emergence activity against MATIN [2] | pre-emergence activity against DIGSA [4, 17] | pre-emergence activity against ALOMY [8] | pre-emergence activity against ECHCG ([9]; application rate 1280 g/ha)
20%: post-emergence activity against ZEAMX in % ([7]; application rate 320 g/ha)
10%: post-emergence activity against BRSNW in % [3] | post-emergence activity against ZEAMX in % ([7]; application rate 80 g/ha)

Cn1cc(C(=O)N2CCCC2Cc2ccc(F)cc2F)c(COc2ccccc2)n1 (racemic) [Example I-008]
100%: pre-emergence activity against ALOMY [1, 15] | pre-emergence activity against ALOMY [1, 16] | pre-emergence activity against DIGSA [4, 18] | pre-emergence activity against ALOMY [8] | pre-emergence activity against POAAN [10, 20] | pre-emergence activity against POAAN [10, 21] | pre-emergence activity against POAAN [10, 22]
20%: pre-emergence activity against GLXMA [12, 23] | pre-emergence activity against ZEAMX ([6]; application rate 320 g/ha, Table D1a)
10%: post-emergence activity against BRSNW in % [3] | pre-emergence activity against ZEAMX [6, 19]
0%: post-emergence activity against GLXMA in % ([5]; application rate 320 g/ha) | post-emergence activity against ZEAMX in % ([7]; application rate 80 g/ha) | post-emergence activity against ZEAMX in % ([7]; application rate 320 g/ha)
90%: pre-emergence activity against MATIN [2] | pre-emergence activity against VIOTR [11] | pre-emergence activity against DIGSA [4, 17] | pre-emergence activity against ECHCG ([9]; application rate 1280 g/ha) | pre-emergence activity against SETVI ([13]; application rate 1280 g/ha) | pre-emergence activity against ECHCG [14]

COCc1nn2c(c1C(=O)N1CCCC1Cc1ccccc1F)CCC2 (racemic) [Example I-022]
90%: pre-emergence activity against ALOMY [1, 15] | pre-emergence activity against ALOMY [1, 16] | pre-emergence activity against MATIN [2] | pre-emergence activity against DIGSA [4, 17] | pre-emergence activity against DIGSA [4, 18] | pre-emergence activity against ECHCG ([9]; application rate 320 g/ha) | pre-emergence activity against SETVI ([13]; application rate 320 g/ha) | pre-emergence activity against SETVI ([13]; application rate 1280 g/ha) | pre-emergence activity against POAAN [10, 20] | pre-emergence activity against ECHCG [14]
0%: post-emergence activity against BRSNW in % [3] | pre-emergence activity against GLXMA [12, 23] | pre-emergence activity against GLXMA ([12]; application rate 320 g/ha, Table D4a) | post-emergence activity against GLXMA in % ([5]; application rate 320 g/ha) | pre-emergence activity against ZEAMX [6, 19] | post-emergence activity against ZEAMX in % ([7]; application rate 80 g/ha) | post-emergence activity against ZEAMX in % ([7]; application rate 320 g/ha)
80%: pre-emergence activity against VIOTR [11]
100%: pre-emergence activity against ECHCG ([9]; application rate 1280 g/ha) | pre-emergence activity against POAAN [10, 21] | pre-emergence activity against POAAN [10, 22]
